Measurements as given in patent publication US8895733B2 (Novartis AG, priority 2010, dated 2014).

These compounds were tested against T1, Nav 1.7 (Homo sapiens, UniProt Q15858) (assay: Whole-cell voltage clamp electrophysiology, automated patch clamp (marker c in Table of Examples)). Settings: marker c = Automated patch clamp data; read-out: Nav 1.7 activity.
T1 construct: expressed in transfected cells
Assay type: cell-based
Procedure, shortened: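 A voltage protocol weighted toward inactivated-state block was used to test compounds on stably expressing cells, with pulses from −65 mV holding to −10 mV test and −100 mV. Currents came from whole-cell automated patch-clamp recordings, either IonWorks Quattro or other automated instruments, usually in perforated-patch mode.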

T1 sequence (Q15858 whole entry): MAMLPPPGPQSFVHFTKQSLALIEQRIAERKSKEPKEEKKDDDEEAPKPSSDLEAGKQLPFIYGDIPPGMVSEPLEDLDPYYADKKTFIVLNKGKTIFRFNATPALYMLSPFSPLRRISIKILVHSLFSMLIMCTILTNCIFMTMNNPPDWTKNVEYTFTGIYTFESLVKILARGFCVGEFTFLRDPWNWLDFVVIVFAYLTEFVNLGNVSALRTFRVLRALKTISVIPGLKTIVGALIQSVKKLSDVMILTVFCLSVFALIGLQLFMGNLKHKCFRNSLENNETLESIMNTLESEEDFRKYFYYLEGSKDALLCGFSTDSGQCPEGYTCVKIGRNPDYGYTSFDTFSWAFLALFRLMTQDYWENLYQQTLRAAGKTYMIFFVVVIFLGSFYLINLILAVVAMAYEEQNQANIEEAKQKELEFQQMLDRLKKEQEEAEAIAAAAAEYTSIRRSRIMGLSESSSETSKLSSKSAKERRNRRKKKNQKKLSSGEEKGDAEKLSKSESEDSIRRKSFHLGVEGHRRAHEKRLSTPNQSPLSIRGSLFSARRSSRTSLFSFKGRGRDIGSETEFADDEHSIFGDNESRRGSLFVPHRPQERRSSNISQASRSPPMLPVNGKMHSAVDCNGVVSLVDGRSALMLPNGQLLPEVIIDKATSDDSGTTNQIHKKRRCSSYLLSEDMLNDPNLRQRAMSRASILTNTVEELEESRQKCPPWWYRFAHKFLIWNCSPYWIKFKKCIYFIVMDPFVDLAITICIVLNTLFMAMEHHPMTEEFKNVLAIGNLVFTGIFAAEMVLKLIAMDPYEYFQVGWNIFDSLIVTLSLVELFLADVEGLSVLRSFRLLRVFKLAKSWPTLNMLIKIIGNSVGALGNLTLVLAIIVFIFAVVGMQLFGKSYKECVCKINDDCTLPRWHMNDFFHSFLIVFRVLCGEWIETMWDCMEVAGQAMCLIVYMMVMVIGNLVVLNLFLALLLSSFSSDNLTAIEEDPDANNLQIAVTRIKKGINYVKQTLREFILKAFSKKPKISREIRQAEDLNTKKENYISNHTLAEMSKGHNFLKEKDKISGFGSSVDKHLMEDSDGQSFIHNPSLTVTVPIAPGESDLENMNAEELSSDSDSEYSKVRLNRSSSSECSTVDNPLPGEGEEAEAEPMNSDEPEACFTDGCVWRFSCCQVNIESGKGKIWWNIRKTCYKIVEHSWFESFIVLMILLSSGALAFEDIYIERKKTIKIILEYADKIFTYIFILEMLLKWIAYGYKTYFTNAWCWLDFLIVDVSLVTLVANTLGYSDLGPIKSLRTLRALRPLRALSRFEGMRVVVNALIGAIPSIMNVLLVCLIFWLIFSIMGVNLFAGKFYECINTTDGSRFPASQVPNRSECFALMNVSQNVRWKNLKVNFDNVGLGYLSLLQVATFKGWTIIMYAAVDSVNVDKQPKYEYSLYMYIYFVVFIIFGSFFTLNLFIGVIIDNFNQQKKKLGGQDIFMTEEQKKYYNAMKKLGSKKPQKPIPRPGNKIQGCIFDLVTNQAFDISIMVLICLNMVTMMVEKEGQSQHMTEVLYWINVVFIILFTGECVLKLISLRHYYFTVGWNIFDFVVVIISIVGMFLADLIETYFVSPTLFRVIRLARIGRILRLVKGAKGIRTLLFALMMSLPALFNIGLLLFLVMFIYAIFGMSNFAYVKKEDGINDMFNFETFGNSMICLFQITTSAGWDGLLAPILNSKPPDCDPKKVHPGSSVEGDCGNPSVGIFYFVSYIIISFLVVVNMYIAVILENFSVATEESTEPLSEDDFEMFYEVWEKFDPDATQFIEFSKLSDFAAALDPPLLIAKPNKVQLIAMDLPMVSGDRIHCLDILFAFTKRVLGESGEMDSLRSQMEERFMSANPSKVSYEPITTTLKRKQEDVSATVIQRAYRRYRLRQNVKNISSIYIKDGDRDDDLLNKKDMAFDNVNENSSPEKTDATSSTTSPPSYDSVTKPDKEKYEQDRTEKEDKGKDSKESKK

Structure (SMILES) | IC50 [µM]
CN(c1ccccc1)c1nc(N)nc(-c2noc(C3CN(S(=O)(=O)c4ccccc4)C3)n2)n1 [Example 313, 6-{5-[1-(benzenesulfonyl)azetidin-3-yl]-1,2,4-oxadiazol-3-yl}-2-N-methyl-2-N-phenyl-1,3,5-triazine-2,4-diamine] | 4.86
CN(c1ccccc1)c1nc(N)nc(-c2noc(C3CCCCC3)n2)n1 [Example 266, 6-(5-cyclohexyl-1,2,4-oxadiazol-3-yl)-2-N-methyl-2-N-phenyl-1,3,5-triazine-2,4-diamine] | 4.37
Nc1nc(Nc2ccccc2)nc(-c2noc(-c3cccnc3OCC(F)(F)F)n2)n1 [Example 502, 2-N-phenyl-6-{5-[2-(2,2,2-trifluoroethoxy)pyridin-3-yl]-1,2,4-oxadiazol-3-yl}-1,3,5-triazine-2,4-diamine] | > 8.95

Other lines, results leading:

IC50 [µM] | Structure (SMILES)
3.21 | Nc1nc(Nc2ccccc2)nc(-c2noc(NC3CCCC3)n2)n1 [Example 231, 6-[5-(cyclopentylamino)-1,2,4-oxadiazol-3-yl]-2-N-phenyl-1,3,5-triazine-2,4-diamine]
1.91 | CN(c1ccccc1)c1nc(N)nc(-c2noc(N3CC(COc4ccccc4)C3)n2)n1 [Example 495, N-Methyl-6-[5-(3-phenoxymethylazetidin-1-yl)-[1,2,4]oxadiazol-3-yl]-N-phenyl-[1,3,5]triazine-2,4-diamine]
2.38 | CN(c1ccccc1)c1nc(N)nc(-c2noc(-c3ccn(C)n3)n2)n1 [Example 252, 2-N-methyl-6-[5-(1-methyl-1H-pyrazol-3-yl)-1,2,4-oxadiazol-3-yl]-2-N-phenyl-1,3,5-triazine-2,4-diamine]
0.968 | CN(c1ccccc1)c1nc(N)nc(-c2noc(C3CN(S(=O)(=O)CC(F)(F)F)C3)n2)n1 [Example 310, 2-N-methyl-2-N-phenyl-6-(5-{1-[(2,2,2-trifluoroethane)sulfonyl]azetidin-3-yl}-1,2,4-oxadiazol-3-yl)-1,3,5-triazine-2,4-diamine]
1.28 | CN(c1ccccc1)c1nc(N)nc(-c2noc(C(=O)N3C[C@@H]4[C@@H](COC5CCCC5)[C@@H]4C3)n2)n1 [Example 405, 6-(5-{[-6-[(cyclopentyloxy)methyl]-3-azabicyclo[3.1.0]hexan-3-yl]carbonyl}-1,2,4-oxadiazol-3-yl)-2-N-methyl-2-N-phenyl-1,3,5-triazine-2,4-diamine]
1.54 | CN(c1ccccc1)c1nc(N)nc(-c2noc(C3CN(Cc4ccccc4)C3)n2)n1 [Example 383, 6-[5-(1-benzylazetidin-3-yl)-1,2,4-oxadiazol-3-yl]-2-N-methyl-2-N-phenyl-1,3,5-triazine-2,4-diamine]
0.982 | CN(c1ccccc1)c1nc(N)nc(-c2noc(C3CCN(C(=O)OC(C)(C)C)CC3)n2)n1 [Example 505, tert-butyl 4-(3-{4-amino-6-[methyl(phenyl)amino]-1,3,5-triazin-2-yl}-1,2,4-oxadiazol-5-yl)piperidine-1-carboxylate]
0.451 | COCCN(c1ccccc1)c1nc(N)nc(-c2noc(-c3ccc(C(=O)OC)nc3)n2)n1 [Example 311, methyl 5-(3-{4-amino-6-[(2-methoxyethyl)(phenyl)amino]-1,3,5-triazin-2-yl}-1,2,4-oxadiazol-5-yl)pyridine-2-carboxylate]
0.253 | CN(c1ccccc1)c1nc(N)nc(-c2noc(-c3ncccc3Cl)n2)n1 [Example 273, 6-[5-(3-chloropyridin-2-yl)-1,2,4-oxadiazol-3-yl]-2-N-methyl-2-N-phenyl-1,3,5-triazine-2,4-diamine]
0.113 | CN(c1ccccc1)c1nc(N)nc(-c2noc(-c3ccc(COCC4CC4)nc3)n2)n1 [Example 208, 6-(5-{6-[(cyclopropylmethoxy)methyl]pyridin-3-yl}-1,2,4-oxadiazol-3-yl)-2-N-methyl-2-N-phenyl-1,3,5-triazine-2,4-diamine]
2.14 | COC1(c2ccccc2)CCN(c2nc(-c3nc(N)nc(N(C)c4ccccc4)n3)no2)CC1 [Example 360, 6-[5-(4-methoxy-4-phenylpiperidin-1-yl)-1,2,4-oxadiazol-3-yl]-2-N-methyl-2-N-phenyl-1,3,5-triazine-2,4-diamine]
0.195 | Nc1nc(Nc2cc(F)ccc2F)nc(-c2noc(-c3ccc(OCC(F)(F)F)nc3)n2)n1 [Example 343, 2-N-(2,5-difluorophenyl)-6-{5-[6-(2,2,2-trifluoroethoxy)pyridin-3-yl]-1,2,4-oxadiazol-3-yl}-1,3,5-triazine-2,4-diamine]
0.603 | CC(C)(C)OC(=O)N1CCC(c2nc(-c3nc(N)nc(Nc4ccccc4)n3)no2)CC1 [Example 512, tert-butyl 4-{3-[4-amino-6-(phenylamino)-1,3,5-triazin-2-yl]-1,2,4-oxadiazol-5-yl}piperidine-1-carboxylate]
0.567 | COc1cccc(-c2nc(-c3nc(N)nc(N(C)c4ccccc4)n3)no2)n1 [Example 415, 6-[5-(6-methoxypyridin-2-yl)-1,2,4-oxadiazol-3-yl]-2-N-methyl-2-N-phenyl-1,3,5-triazine-2,4-diamine]
2.67 | CN(c1ccccc1)c1nc(N)nc(-c2noc(-c3ccc4c(c3)COC4)n2)n1 [Example 306, 6-(5-(1,3-dihydro-2-benzofuran-5-yl)-1,2,4-oxadiazol-3-yl]-2-N-methyl-2-N-phenyl-1,3,5-triazine-2,4-diamine]

Same assay, conditions: marker c: Automated patch clamp data; read-out: Nav 1.7 activity

IC50 [µM] | Structure (SMILES)
0.065 | Nc1nc(Nc2cccc(F)c2)nc(-c2noc(-c3ccc(OCC4CC4)nc3)n2)n1 [Example 136, 6-{5-[6-(cyclopropylmethoxy)pyridin-3-yl]-1,2,4-oxadiazol-3-yl}-2-N-(3-fluorophenyl)-1,3,5-triazine-2,4-diamine]
2.24 | CN(c1ccccc1)c1nc(N)nc(-c2noc(-c3ccncn3)n2)n1 [Example 120, N-Methyl-N-phenyl-6-(5-pyrimidin-4-yl-[1,2,4]oxadiazol-3-yl)-[1,3,5]triazine-2,4-diamine]
9.04 | CN(c1ccccc1)c1nc(N)nc(-c2noc(C3CCN(C(=O)CC(F)(F)F)CC3)n2)n1 [Example 164, 1-[4-(3-{4-amino-6-[methyl(phenyl)amino]-1,3,5-triazin-2-yl}-1,2,4-oxadiazol-5-yl)piperidin-1-yl]-3,3,3-trifluoropropan-1-one]
1.03 | CN(c1ccccc1)c1nc(N)nc(-c2noc(C3CCN(S(=O)(=O)CC(F)(F)F)CC3)n2)n1 [Example 169, 2-N-methyl-2-N-phenyl-6-(5-{1-[(2,2,2-trifluoroethane)sulfonyl]piperidin-4-yl}-1,2,4-oxadiazol-3-yl)-1,3,5-triazine-2,4-diamine]
0.782 | Cc1ccsc1-c1nc(-c2nc(N)nc(N(C)c3ccccc3)n2)no1 [Example 126, N-Methyl-6-[5-(3-methyl-thiophen-2-yl)-[1,2,4]oxadiazol-3-yl]-N-phenyl-[1,3,5]triazine-2,4-diamine]
1.3 | CCN(c1ccccc1)c1nc(N)nc(-c2noc(-c3ccc(C)o3)n2)n1 [Example 97, N-Ethyl-6-[5-(5-methyl-furan-2-yl)-[1,2,4]oxadiazol-3-yl]-N-phenyl-[1,3,5]triazine-2,4-diamine]
0.02 | CN(c1ccccc1)c1nc(N)nc(-c2noc(N3CCC(CSCC(F)(F)F)CC3)n2)n1 [Example 175, 2-N-methyl-2-N-phenyl-6-[5-(4-{[(2,2,2-trifluoroethyl)sulfanyl]methyl}piperidin-1-yl)-1,2,4-oxadiazol-3-yl]-1,3,5-triazine-2,4-diamine]
